Measured values reported in US5449608A, “Parvovirus B19 receptor and parvovirus B19 detection” (The United States of America as represented by the …, priority 1993, dated 1995).

Key:
[1] = test system: human red cells; test: Hemagglutination (HA) assay with reagent-treated erythrocytes and B19 empty capsids; format: cell-based; conditions: for Change in HA titer (log2): erythrocytes incubated with agent at 37° C.; for Effect of red cell treatment on binding of virus to the erythrocytes: human red cells treated with agent
Description: (§1) The B19 parvovirus receptor was identified utilizing a hemagglutination (HA) assay as described in Brown and Cohen (1992). Briefly, the ability of B19 to hemagglutinate human red cells was utilized to evaluate the ability of certain compounds to inhibit agglutination in the assay. Cellular components from red cell membranes were fractionated and their reactivity evaluated in the HA assay. Lipid extraction and purification of glycolipid fractions followed by evaluation in the HA assay identified the glycosphingolipid, globoside, as the cellular receptor for B19. Further, biochemical characterization and HA evaluation identified the polysaccharide GalNAc(β,3-3)Gal(α1-4)Gal(β,1-4)Glc as the specific binding domain for B19. […] Antibodies specific for globoside were also utilized in the assay to block infectivity to verify that globoside was the receptor.
In order to characterize the physical nature of the B19 receptor, human red cells were treated with a variety of agents and the change in hemagglutination (HA) titer measured (ICE. Brown et al. (1992)) (Table 1).
Table 1. Washed erythrocytes (0.5% v/v) were incubated at 37° C.
with the reagents, washed twice in saline and resuspended at 0.5%. The
cells were used in a standard hemagglutination assay using B19 empty
capsids produced in insect cells (Brown and Cohen (1992)) the end point
was 50% HA (1 HA50). In the table, therefore, an increasing the HA
titer (log2) by a factor of one reflects a doubling of the measured

[2] = test system: B19 empty capsids; test: Hemagglutination inhibition assay (HAI); format: binding, parvovirus B19; conditions: for HAI titer: Purified glycosphingolipid, 1 mg/ml in saline, 4-8 HA50 units of virus capsid
Description: as §1
To identify the B19 cellular receptor, the ability of B19 to agglutinate red cells and B19 infectivity assays were used as measures of viral binding. It had been previously shown that B19 parvovirus empty capsids (S. Kajigaya et al. (1991)) agglutinate human red cells Brown and Cohen (1992)), and we tested the ability of membrane extracts from different cell types to block B19 binding in the hemagglutination assay (HA). Membrane extracts were prepared using 10 mM CHAPS (3-[(3cholamidopropyl)-dimethylammonio]-1-propanesulfonate) to solubilize proteins and lipids.
Table 2. Human erythrocyte ghosts (J. T. Dodge, et al (1963)) were treate
with 10 mM CHAPS, the solubilized extract incubated with agarose
immobilized enzymes overnight at 37° C. and the supernatant tested
in a hemagglutination inhibition assay (HAI). Purified glycosphingolipids
(Sigma or BioCarb Chemicals) were dissolved in saline and tested by HAI
using 4-8 HA50 units of virus capsid. (In the table, CTH is ceramide
trihexoside and the HAI titer is the dilution required to reduce the HA t
Table 3. Hemagglutination inhibition (HAI) titers red cell lipid
fractionated on different columns. Lipid was extracted from red cell
ghosts (9,12) and fractionated on either a silica gel or
DEAEcellulose-acetate column (13). Organic solvents were removed by
evaporation and salts removed by dialysis against water and
lyophilization. The residual pellets were resuspended in saline and teste
in the hemagglutination assay.

[3] = test system: B19 virus; test: Erythroid progenitor assay (CFU-E in methylcellulose) for B19 infection; format: cell-based, parvovirus B19; conditions: for Blocking of B19 cytotoxicity to CFU-E: B19 virus preincubated with globoceramide two hours, then bone marrow mononuclear cells two hours, CFU-E counted seven days later
Method: To establish the biological relevance of binding of virus to P antigen, globoceramides were tested for their ability to block vital infection of permissive cells, using the erythroid progenitor assay (P. P. Mortimer et al. (1983)). Parvovirus B19 is highly toxic to the production of erythroid colonies from late erythroid progenitors (CFU-E) in methylcellulose culture, and this system was used as an assay for B19 infection. In the study, binding of B19 antigen to P antigen was shown by competition of infection using globoside or monoclonal antibody to P antigen. First, B19 virus was preincubated with different globoceramides, e.g., lactosyl, triosyl, and Forssman (Sigma or BioCarb Chemicals) and with different globoside concentrations for two hours, and then mixed with bone marrow mononuclear cells for a further two hours. […] Second, mouse monoclonal antibodies to P-antigen (A. E. yon dem Borne et al. (1986)) or P1 or p^k (BioCarb Chemicals) were diluted 1:100 and incubated with bone marrow mononuclear cells for two hours. Purified B19 virus as above was added for a further two hours. The cell mixtures were plated in methylcellulose (P. Mortimer et al. (1983)) and CFU-E counted seven days later. […] There was no protection with similar antibodies against P1 or p^k.

[4] = test system: B19 empty capsids; test: Binding of viral capsids to glycosphingolipids by thin layer chromatography; parameters: species or system parvovirus B19; conditions: 1 ug of purified glycosphingolipid on silica plate
Method: Red cells from individuals with different blood group P system phenotypes were tested for their ability to agglutinate with parvovirus B19. Only cells containing P antigen hemagglutinated: P1 phenotype HA titer was 10,000; P2 phenotype HA titer was 5,000; P1^k and p phenotype were <200. […] Lipids were extracted from 0.2 mls packed red cells (H. Rose et al. (1965)) of patients with different P blood group phenotypes, dried and resuspended in 50 ul chloroform:methanol 1:1.20 ul of extract or 1 ug of each purified glycosphingolipid (Calbiochem) were applied to a silica plate (Merck) and chromatography performed with chloroform:methanol:water 65:25:4. Non-specific binding was blocked with 3% bovine albumin in phosphate buffered saline (16 hours) before the plates were sequentially incubated with B19 empty capsids, a human polyclonal anti-B19 serum, goat anti-human antibody conjugated with horse radish peroxidase, and developed with diaminobenzidene enhanced with cobalt chloride. The capsids bound to the globoside in P1 and P2 cells, and to purified globoside and Forssman antigen. B19 capsids and mouse monoclonal antibody to globoside (A. E. yon dem Borne et al. (1986)) bound to the same band on Western blotting of red cell extract, the putative "globoprotein" (Y. Tonegawa et al. (1977)).

In the case of `OCCS` [2-Mercaptoethanol], the “Change in HA titer (log2)” value ([1]; time 1 hr, final conc. 5 mM) is reported as 0 log2.
With `O[C@H](CS)[C@H](O)CS` (racemic) [Dithiothreitol] the “Change in HA titer (log2)” value ([1]; time 1 hr, final conc. 4 mM) was 0 log2.
In the case of `[Na+].[O-][I+3]([O-])([O-])[O-]` [NaIO4, sodium periodate], the “decrease in HA titer” value ([1]; High concentrations (10 mM)) is reported as greater than 4 log2, the “Change in HA titer (log2)” value ([1]; time 15 min, final conc. 10 mM) is reported as less than -4 log2 and the “Change in HA titer (log2)” value ([1]; time 20 hr, final conc. 5 uM) is reported as -1 log2. The “Effect of red cell treatment on binding of virus to the erythrocytes” value [1] was “markedly reduced binding”.
`C=O` [Formaldehyde] was tested, and the “Change in HA titer (log2)” value ([1]; time 1 hr, final conc. 0.2%) was 0 log2.
In the case of Trypsin, the “Change in HA titer (log2)” value ([1]; time 1 hr, final conc. 0.2%) is reported as “+4 log2” and the “Effect of red cell treatment on binding of virus to the erythrocytes” value [1] is reported as “increased binding”.
In the case of globotetraosylceramide [Globoside, P], the “Inhibition of hemagglutination by B19” value [2] is reported as “inhibitory activity”, the HAI titer [2] is reported as 25600 and the “Blocking of B19 cytotoxicity to CFU-E” value [3] is reported as “completely blocked”. For the same compound, the “Relationship of concentration to ability to block infectivity of mononuclear cells with B19 virus” value ([3]; different globoside concentrations) was “positive linear relationship” and the “Binding of B19 capsids on thin layer chromatography plate” value [4] was “bound”.
In the case of Lactosyl ceramide, the HAI titer [2] is reported as less than 10 and the “Blocking of B19 cytotoxicity to CFU-E” value [3] is reported as “no effect”.
In the case of globotriaosylceramide [CTH, P^k], the HAI titer [2] is reported as less than 10 and the “Blocking of B19 cytotoxicity to CFU-E” value [3] is reported as “no effect”.
For `O=C(O)CN(CCN(CC(=O)O)CC(=O)O)CC(=O)O` [EDTA], the “Change in HA titer (log2)” value ([1]; time 1 hr, final conc. 5 mM) was 0 log2.
